tested on: Aβ42; test: Aβ42 production in H4 neuroglioma cells stably expressing human APP695 (Meso Scale Discovery electrochemiluminescence assay); format: cell-based; details: higher ratio = more specific inhibition of Aβ42 over Aβ total
Experimental: Cells were plated out to near confluency. The compounds to be tested were received as 10 mM stocks in 100% DMSO. A dilution series was initially generated in 100% DMSO and then diluted 200-fold in cell culture media such that the tested concentration range was 30 μM to 0.1 nM and the final DMSO concentration was 0.5%. The diluted compounds were incubated with the cells for 22 hours in an incubator at 37° C. and 5% CO2. Aβ42 as well as Aβ total levels were then measured post-incubation from the supernatant of the cells. Aβ42 levels were determined using a specific electrochemiluminescence assay provided by Meso Scale Discovery (Catalog #L21CA-1) according to the manufacturer's protocol. Aβ total levels were likewise determined using a specific electrochemiluminescence assay provided by Meso Scale Discovery (Catalog #L21ZA-1) according to the manufacturer's protocol.
In order to absolutely define the described compounds as modulators of γ-Secretase as opposed to simply inhibitors of γ-Secretase, measurements of not only Aβ42 but also Aβ total are performed.

| Ratio Aβ(total)/Aβ42 (Aβ total IC50/Aβ42 IC50) | Compound |
| --- | --- |
| 46 | COc1cc(Nc2ncc3c(n2)N(C)C2(CCOC2)C(=O)N3CC2CCOCC2)ccc1-n1cnc(C)c1 (stereo not shown) [Example 26] |
| 88 | COc1cc(Nc2ncc3c(n2)N(C)C2(CCOC2)C(=O)N3C(C)c2ccccn2)ccc1-n1cnc(C)c1 (stereo not shown) [Example 37k] |
| >10 | Cc1ncc(-c2ccc(Nc3ncc4c(n3)N(C)C3(CCOC3)C(=O)N4C)cn2)o1 (stereo not shown) [Example 8] |
| >306 | COc1cc(Nc2ncc3c(n2)N(C)C2(CC2)C(=O)N3c2ccc(F)cc2)ccc1-n1cnc(C)c1 [Example 46] |
| >10 | COc1cc(Nc2ncc3c(n2)N(CC2CCOCC2)C2(CCOC2)C(=O)N3CC2CCOCC2)ccc1-n1cnc(C)c1 (stereo not shown) [Example 24] |
| >25 | COc1cc(Nc2ncc3c(n2)N(C)C2(COC2)C(=O)N3C)ccc1-n1cnc(C)c1 [Example 41] |
| 91 | COc1cc(Nc2ncc3c(n2)N(C)C2(COCCOC2)C(=O)N3)ccc1-n1cnc(C)c1 [Example 25] |
| >244 | COc1cc(Nc2ncc3c(n2)N(C)C2(CCOCC2)C(=O)N3C)ccc1-c1cnc(C)o1 [Example 1] |
| 98 | COc1cc(Nc2ncc3c(n2)N(C)C2(CC2)C(=O)N3C2COC2)ccc1-n1cnc(C)c1 [Example 47] |
| 55 | COc1cc(Nc2ncc3c(n2)N(C)C2(CCOCC2)C(=O)N3c2ccc(F)cc2)ccc1-n1cnc(C)c1 [Example 37f] |
| 82 | COc1cc(Nc2ncc3c(n2)N(C)C2(CCOC2)C(=O)N3CC(F)(F)F)ccc1-n1cnc(C)c1 (stereo not shown) [Example 37e] |
| >15 | COCCN1C(=O)C2(CCOC2)N(C)c2nc(Nc3ccc(-n4cnc(C)n4)c(OC)c3)ncc21 (stereo not shown) [Example 15] |
| 180 | CCc1nc(Nc2ccc(-n3cnc(C)c3)c(C#N)c2)nc2c1N(C)C(=O)C1(CCOC1)N2C (stereo not shown) [Example 35] |
| >9 | COc1cc(Nc2ncc3c(n2)NC2(CCOC2)C(=O)N3CC2CCOCC2)ccc1-n1cnc(C)c1 (stereo not shown) [Example 22] |
| 39 | COc1cc(Nc2ncc3c(n2)NC2(CCOC2)C(=O)N3CCC(C)C)ccc1-n1cnc(C)c1 (stereo not shown) [Example 29] |
| 50 | COc1cc(Nc2ncc3c(n2)N(C)C2(CC2)C(=O)N3CC(F)(F)F)ccc1-n1cnc(C)c1 [Example 44] |
| 85 | COc1cc(Nc2ncc3c(n2)N(C)C2(CCOC2)C(=O)N3CC(F)F)ccc1-n1cnc(C)c1 (stereo not shown) [Example 37h] |
| 54 | CCc1nc(Nc2cnc(-n3cnc(C)c3)c(OC)c2)nc2c1N(C)C(=O)C1(CC1)N2C [Example 37i] |
| 69 | COc1cc(Nc2ncc3c(n2)N(C)C2(CC4CCC2C4)C(=O)N3C)cnc1-n1cnc(C)c1 (stereo not shown) [Example 49] |
| >517 | COc1cc(Nc2ncc3c(n2)N(C)C2(CCC2)C(=O)N3CC(F)(F)F)ccc1-c1cnc(C)o1 [Example 45] |
| >147 | COc1cc(Nc2ncc3c(n2)N(C)C2(CC2)C(=O)N3CC(F)(F)F)cnc1-n1cnc(C)c1 [Example 50] |
| >9 | Cc1ncc(-c2ccc(Nc3nc(C)c4c(n3)N(C)C3(CCOCC3)C(=O)N4C)cn2)o1 [Example 5] |
| >13 | COCCN1C(=O)C2(CCOCC2)N(C)c2nc(Nc3ccc(-n4cnc(C)n4)c(OC)c3)ncc21 [Example 13] |
| 47 | COc1cc(Nc2ncc3c(n2)N(C)C2(CCOCC2)C(=O)N3C2CC2)ccc1-n1cnc(C)c1 [Example 37b] |
| 61 | COc1cc(Nc2ncc3c(n2)N(C)C2(CC2)C(=O)N3CC(F)F)ccc1-n1cnc(C)c1 [Example 52] |
| >27 | COCCN1C(=O)C2(CCOC2)N(C)c2nc(Nc3ccc(-c4ccnc(C)c4)cc3)ncc21 (stereo not shown) [Example 14] |

| Ratio Aβ(total)/Aβ42 (Aβ total IC50/Aβ42 IC50) | Compound |
| --- | --- |
| 29 | Cc1ncc(-c2ccc(Nc3ncc4c(n3)N(C)C3(CCc5ccccc5C3)C(=O)N4C)cn2)o1 (stereo not shown) [Example 37] |
| >136 | COc1cc(Nc2ncc3c(n2)N(C)C2(CCOC2)C(=O)N3C)ccc1-n1cnc(C)c1 (stereo not shown) [Example 6] |
| 96 | COCCN1c2nc(Nc3ccc(-n4cnc(C)c4)c(OC)c3)nc(CC(C)C)c2N(C)C(=O)C12CCOC2 (stereo not shown) [Example 30] |
| >3 | COc1cc(Nc2ncc3c(n2)NC2(CCOC2)C(=O)N3C2COC2)ccc1-n1cnc(C)c1 (stereo not shown) [Example 28] |
| 88 | COCCN1C(=O)C2(CCOC2)N(C)c2nc(Nc3ccc(-n4cnc(C)c4)c(OC)c3)ncc21 (stereo not shown) [Example 16] |
| 57 | COc1cc(Nc2ncc3c(n2)N(C)C2(CCOCC2)C(=O)N3Cc2ccc(F)cc2F)ccc1-n1cnc(C)c1 [Example 37j] |
| 26 | COCCN1C(=O)C2(CCOCC2)N(C)c2nc(Nc3ccc(-n4cnc(C)c4)c(OC)c3)ncc21 [Example 11] |
| >315 | COc1cc(Nc2ncc3c(n2)N(C)C2(CCOC2)C(=O)N3C)ccc1-c1cnc(C)o1 (stereo not shown) [Example 7] |
| 75 | COc1cc(Nc2ncc3c(n2)N(C)C2(CCOCC2)C(=O)N3c2cc(F)cc(F)c2)ccc1-n1cnc(C)c1 [Example 37c] |
| >15 | COc1cc(Nc2ncc3c(n2)N(C2CCCC2)C2(CC2)C(=O)N3C)ccc1-n1cnc(C)c1 [Example 38] |
| >6 | Cc1ncc(-c2ccc(Nc3ncc4c(n3)N(C)C3(CCOCC3)C(=O)N4C)cn2)o1 [Example 3] |
| 65 | CCCN1C(=O)C2(CCOCC2)N(C)c2nc(Nc3ccc(-n4cnc(C)c4)c(OC)c3)ncc21 [Example 17] |
| >257 | Cc1cn(-c2ccc(Nc3ncc4c(n3)NC3(CCOC3)C(=O)N4C)cc2C#N)cn1 (stereo not shown) [Example 19] |
| 22 | COc1cc(Nc2ncc3c(n2)N(C)C2(CCOC2)C(=O)N3c2ccc(C(F)(F)F)cn2)ccc1-n1cnc(C)c1 (stereo not shown) [Example 48] |
| 51 | COc1cc(Nc2ncc3c(n2)N(C)C2(CCCOCC2)C(=O)N3C)ccc1-n1cnc(C)c1 (stereo not shown) [Example 42] |
| >112 | COc1cc(Nc2ncc3c(n2)N(C)C2(COCCOC2)C(=O)N3C)ccc1-n1cnc(C)c1 [Example 27] |
| 91 | COc1cc(Nc2ncc3c(n2)N(C)C2(CCCCOC2)C(=O)N3C)ccc1-n1cnc(C)c1 (stereo not shown) [Example 39] |
| >62 | COc1cc(Nc2nc3c(c(C(C)(C)O)n2)N(C)C(=O)C2(CCOC2)N3C)ccc1-c1cnc(C)o1 (stereo not shown) [Example 40] |
| 46 | COc1cc(Nc2ncc3c(n2)N(C)C2(CCOC2)C(=O)N3)ccc1-n1cnc(C)c1 (stereo not shown) [Example 10] |
| 58 | COc1cc(Nc2ncc3c(n2)N(C)C2(CCOC2)C(=O)N3C2CC2)ccc1-n1cnc(C)c1 (stereo not shown) [Example 37g] |
| 47 | COCCN1c2nc(Nc3ccc(-c4cnc(C)o4)c(OC)c3)nc(CC(C)C)c2N(C)C(=O)C12CCOC2 (stereo not shown) [Example 31] |
| >90 | COc1cc(Nc2ncc3c(n2)NC2(CCOC2)C(=O)N3C)ccc1-n1cnc(C)c1 (stereo not shown) [Example 20] |
| >101 | COc1cc(Nc2ncc3c(n2)N(C)C2(CCOCC2)C(=O)N3)ccc1-n1cnc(C)c1 [Example 9] |
| 11 | COCCN1C(=O)C2(CCOCC2)N(C)c2nc(Nc3ccc(-c4ccnc(C)c4)cc3)ncc21 [Example 12] |
| 89 | COc1cc(Nc2ncc3c(n2)N(C)C2(CCOCC2)C(=O)N3C)ccc1-n1cnc(C)c1 [Example 2] |
| >36 | COc1cc(Nc2nc3c(c(C(F)(F)F)n2)N(C)C(=O)C2(CCOCC2)N3C)ccc1-n1cnc(C)c1 [Example 37d] |

Reference: patent publication US8865716B2, “Dihydropteridinones II” (Boehringer Ingelheim International GmbH, priority 2013, dated 2014)
